In patent US20150031743A1, “CELL TRANSFECTING FORMULATIONS OF SMALL INTERFERING RNA, RELATED COMPOSITIONS AND METHODS OF MAKING AND USE” (NOVARTIS VACCINES AND DIAGNOSTICS, INC., priority 2003, published 2015):

Columns and labels:
firefly luciferase = assay: Loss of luciferase activity after siRNA transfection, Promega Dual-Luciferase Reporter Assay (Example 2, FIG. 3); type: cell-based; settings: MDA231 stably expressing luciferase, control non-transfected cell line
Method: (§1) For each transfection mixture (which are examples of compositions in accordance with the present invention), a lipitoid or lipitoid/cholesteroid combination delivery vehicle was prepared to a working concentration of 0.5 mM in water and mixed to yield a uniform solution. The siRNA was prepared to a working concentration of 20 μM in buffer supplied with the siRNAs. In this example, the siRNAs were for Akt1 mRNA and had the sequence […] (SEQ ID No: 1) with two 2′ O-methyl UU (RNA) nucleotide 3′-overhangs and phosphodiester links throughout (available from Integrated DNA Technologies). The siRNA was diluted in OptiMEM™ (Gibco/BRL), in a microfuge tube, to 1 μM, or approximately 15 μg oligo/ml of OptiMEM™. In a separate microfuge tube, vehicle, typically in the amount of about 3.75 nmol vehicle/100 pmol siRNA, was diluted into the same volume of OptiMEM™ used to dilute the siRNA. […] Note that the exact ratio of siRNA to vehicle must be determined empirically for each cell type, but generally is about this amount. The diluted siRNA was immediately added to the diluted vehicle and mixed by pipetting up and down. The mixture was allowed to incubate at room temperature for 10 minutes.
Cells were plated on tissue culture dishes one day in advance of transfection, in growth media with serum, to yield a density at transfection of 60-90%. The siRNA/vehicle mixture was added to the cells immediately after mixing and incubation, to a final concentration of 50-100 nM siRNA in half the normal growth medium volume. Cells were incubated with the transfection mixture at 37° C., 5% CO2 for 4-24 hours. […]
Transfection mixtures were prepared using siRNA against firefly luciferase (CGUACGCGGAAUACUUCGA (SEQ ID No: 2); from Elbashir et al., Nature, 411, 494 (2001)) and several different delivery vehicles in accordance with the present invention as described herein (L1, L2, L1/C1, L4 1L1/3C1) substantially as described in Example 1. Luciferase activity was quantified with the Promega Dual-Luciferase Reporter Assay System according to package directions. […]

Akt1 mRNA = assay: siRNA inhibition of Akt1 mRNA in MDA435 breast cancer cells (Example 1, FIG. 2); type: cell-based; settings: presence or absence of serum, Akt1 message normalized to average of HPRT and GUSB
Method: as §1
Cells were plated on tissue culture dishes one day in advance of transfection, in growth media with serum, to yield a density at transfection of 60-90%. […]

Row | Substance | luciferase activity after transfection of siRNA against luciferase (firefly luciferase) | Akt1 expression after transfection of siRNA directed against Akt1 mRNA (Akt1 mRNA)
1 | DMPE(NaeNmpeNmpe)3 [Lipitoid L1] | substantially reduced | 
2 | NtdNhd(NaeNmpeNmpe)3 [Lipitoid L3] |  | loss of Akt1 expression
3 | DMPE(NaeNiaNia)3 [Lipitoid L2] | substantially reduced | loss of Akt1 expression
4 | NddNol(NaeNmpeNmpe)3 [Lipitoid L4] | substantially reduced | 
